The record followed here is patent US20210070748A1, “INHIBITORS OF BRUTONS TYROSINE KINASE” (Pharmacyclics LLC, priority 2015, published 2021).

The target of one experiment is T1, BTK-WT (Homo sapiens, UniProt Q06187).
T1 construct: purified from insect cells as a full-length construct containing an N-terminal 6X-His tag; His6 (N); made in house; host or cells: insect cells (baculovirus Sf21 in Method B)
In words: Btk in vitro inhibitory activity (one of Method A TR-FRET, Method B electrophoretic mobility shift, Method C radiometric filter binding). In kind it is biochemical. The settings on record: D-compounds panel data; read-out: IC50 BTK-WT. On the technique in general: Mobility shift assays separate free from complexed probe on a gel.

In another experiment the target is T2, JAK3 (Homo sapiens, UniProt P52333).
T2 sequence (P52333 1-1124): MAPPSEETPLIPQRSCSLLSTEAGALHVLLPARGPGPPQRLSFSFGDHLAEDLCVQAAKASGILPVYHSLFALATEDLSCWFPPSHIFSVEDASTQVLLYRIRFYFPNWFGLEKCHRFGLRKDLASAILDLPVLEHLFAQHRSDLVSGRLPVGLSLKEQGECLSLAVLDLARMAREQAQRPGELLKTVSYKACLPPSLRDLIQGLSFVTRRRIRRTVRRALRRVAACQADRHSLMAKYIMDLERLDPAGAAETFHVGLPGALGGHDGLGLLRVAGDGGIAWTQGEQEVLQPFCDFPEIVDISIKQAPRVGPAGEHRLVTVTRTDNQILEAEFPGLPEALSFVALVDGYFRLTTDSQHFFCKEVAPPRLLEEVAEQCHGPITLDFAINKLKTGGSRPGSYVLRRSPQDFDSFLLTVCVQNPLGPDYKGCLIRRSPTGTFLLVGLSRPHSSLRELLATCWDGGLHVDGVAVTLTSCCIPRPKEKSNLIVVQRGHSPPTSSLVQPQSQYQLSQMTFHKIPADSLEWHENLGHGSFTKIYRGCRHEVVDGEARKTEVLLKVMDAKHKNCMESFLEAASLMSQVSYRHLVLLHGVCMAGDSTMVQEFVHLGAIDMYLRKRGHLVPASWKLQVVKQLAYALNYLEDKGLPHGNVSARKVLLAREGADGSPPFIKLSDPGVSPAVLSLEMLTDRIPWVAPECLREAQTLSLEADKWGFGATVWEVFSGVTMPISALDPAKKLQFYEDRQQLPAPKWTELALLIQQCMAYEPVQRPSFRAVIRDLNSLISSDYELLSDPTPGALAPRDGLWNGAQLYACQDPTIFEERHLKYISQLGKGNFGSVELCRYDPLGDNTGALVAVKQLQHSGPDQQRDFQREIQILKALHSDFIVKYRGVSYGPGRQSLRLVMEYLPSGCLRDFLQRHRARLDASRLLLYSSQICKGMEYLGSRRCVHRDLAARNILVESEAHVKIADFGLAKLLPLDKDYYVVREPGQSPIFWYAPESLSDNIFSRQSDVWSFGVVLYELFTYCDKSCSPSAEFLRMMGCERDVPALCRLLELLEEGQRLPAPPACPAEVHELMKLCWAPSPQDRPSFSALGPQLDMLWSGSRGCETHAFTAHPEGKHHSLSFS
Kind of experiment: Inhibition of a panel of kinases, in vitro HotSpot kinase assay: JAK3. In kind it is biochemical. Conditions: D-compounds panel data; 1 μM ATP; read-out: IC50 JAK3.

T1 sequence (Q06187 whole entry): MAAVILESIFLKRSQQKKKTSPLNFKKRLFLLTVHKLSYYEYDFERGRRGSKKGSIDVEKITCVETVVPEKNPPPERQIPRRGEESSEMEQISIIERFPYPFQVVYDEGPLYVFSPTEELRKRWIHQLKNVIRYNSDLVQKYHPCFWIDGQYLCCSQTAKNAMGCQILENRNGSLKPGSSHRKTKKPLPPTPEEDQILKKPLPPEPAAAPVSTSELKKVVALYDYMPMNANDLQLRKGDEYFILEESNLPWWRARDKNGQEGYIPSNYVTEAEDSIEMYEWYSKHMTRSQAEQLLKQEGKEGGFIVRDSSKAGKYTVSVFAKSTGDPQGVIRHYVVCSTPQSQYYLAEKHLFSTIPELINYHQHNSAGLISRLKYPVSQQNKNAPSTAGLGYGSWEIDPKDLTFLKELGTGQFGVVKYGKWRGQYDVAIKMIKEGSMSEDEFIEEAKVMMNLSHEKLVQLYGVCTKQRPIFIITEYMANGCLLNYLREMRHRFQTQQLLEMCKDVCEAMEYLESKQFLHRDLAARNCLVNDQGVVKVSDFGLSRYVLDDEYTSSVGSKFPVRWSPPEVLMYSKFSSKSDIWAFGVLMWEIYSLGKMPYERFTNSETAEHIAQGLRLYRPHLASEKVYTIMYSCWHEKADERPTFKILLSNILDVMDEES

On to `C[C@@H]1[C@H](NC(=O)c2ccc(OC(F)(F)F)cc2)CCCN1c1cnc(C(N)=O)c(Nc2cnn(C)c2)n1` [Example D-95, 3-[(1-methyl-1H-pyrazol-4-yl)amino]-5-[(2R,3R)-2-methyl-3-[4-(trifluoromethoxy)benzamido]piperidin-1-yl]pyrazine-2-carboxamide], for which the IC50 on BTK-WT is not above 0.01 µM; at JAK3, 1 to 10 µM.
The like results for `C[C@H]1CC[C@@H](NC(=O)c2ccc(C3CC3)cc2)CN1c1cnc(C(N)=O)c(Nc2ccc(N3CCN(C)CC3)c(F)c2)n1` [Example D-150, 5-[(2S,5R)-5-(4-cyclopropylbenzamido)-2-methylpiperidin-1-yl]-3-{[3-fluoro-4-(4-methylpiperazin-1-yl)phenyl]amino}pyrazine-2-carboxamide] were, in that order, not above 0.01 µM and 1 to 10 µM.
On the same counts, the results for `C[C@H]1CC[C@@H](NC(=O)c2ccc(C3CC3)cc2)CN1c1cnc(C(N)=O)c(Nc2cnn(C)c2)n1` [Example D-142, 5-[(2S,5R)-5-(4-cyclopropylbenzamido)-2-methylpiperidin-1-yl]-3-[(1-methyl-1H-pyrazol-4-yl)amino]pyrazine-2-carboxamide] are not above 0.01 µM and 0.1 to 1 µM.
As for `CNC(=O)N[C@@H]1CCCN(c2cnc(C(N)=O)c(Nc3cnn(C)c3)n2)[C@@H]1C` [Example D-109, 3-[(1-methyl-1H-pyrazol-4-yl)amino]-5-[(2R,3R)-2-methyl-3-[(methylcarbamoyl)amino]piperidin-1-yl]pyrazine-2-carboxamide], the IC50 on BTK-WT is not above 0.01 µM; on JAK3 it was 1 to 10 µM.
Take `C[C@@H]1[C@H](NC(=O)c2ccc(C3CC3)cc2)CCCN1c1cnc(C(N)=O)c(Nc2ccc(N3CCN(CC(F)(F)F)CC3)cc2)n1` [Example D-97, 5-[(2R,3R)-3-(4-cyclopropylbenzamido)-2-methylpiperidin-1-yl]-3-({4-[4-(2,2,2-trifluoroethyl)piperazin-1-yl]phenyl}amino)pyrazine-2-carboxamide]: the IC50 is 0.01 to 0.1 µM at BTK-WT and 1 to 10 µM at JAK3.
On the same counts, the results for `C[C@@H]1[C@H](NC(=O)N(C)C)CCCN1c1cnc(C(N)=O)c(Nc2ccc(C(=O)N3CCN(C)CC3)cc2)n1` [Example D-110, 5-[(2R,3R)-3-[(dimethylcarbamoyl)amino]-2-methylpiperidin-1-yl]-3-{[4-(4-methylpiperazine-1-carbonyl)phenyl]amino}pyrazine-2-carboxamide] are not above 0.01 µM and 1 to 10 µM.
The like results for `C[C@@H]1[C@H](NC(=O)N(C)C)CCCN1c1cnc(C(N)=O)c(Nc2ccc(OC3CCN(C4CCCC4)CC3)cc2)n1` [Example D-102, 3-({4-[(1-cyclopentylpiperidin-4-yl)oxy]phenyl}amino)-5-[(2R,3R)-3-[(dimethylcarbamoyl)amino]-2-methylpiperidin-1-yl]pyrazine-2-carboxamide] were, in that order, not above 0.01 µM and 0.1 to 1 µM.
The like results for `C[C@H]1CC[C@@H](NC(=O)c2ccc(C(C)(C)O)cc2)CN1c1nnc(C(N)=O)c(Nc2cnn(C)c2)n1` [Example D-157, 3-[(2S,5R)-5-[4-(2-hydroxypropan-2-yl)benzamido]-2-methylpiperidin-1-yl]-5-[(1-methyl-1H-pyrazol-4-yl)amino]-1,2,4-triazine-6-carboxamide] were, in that order, not above 0.01 µM and 0.1 to 1 µM.
Turning to `Cc1cccc(-c2cnc(C3CCCN(c4cnc(C(N)=O)c(Nc5cnn(C)c5)n4)C3)[nH]2)c1` [Example D-148, 3-[(1-methyl-1H-pyrazol-4-yl)amino]-5-{3-[5-(3-methylphenyl)-1H-imidazol-2-yl]piperidin-1-yl}pyrazine-2-carboxamide], the IC50 lay within 0.01 to 0.1 µM on BTK-WT and 1 to 10 µM at JAK3.
As for `C[C@@H]1CC[C@H](NC(=O)N(C)C)CN1c1cnc(C(N)=O)c(Nc2cnn(C)c2)n1` [Example D-151, 5-[(2R,5S)-5-[(dimethylcarbamoyl)amino]-2-methylpiperidin-1-yl]-3-[(1-methyl-1H-pyrazol-4-yl)amino]pyrazine-2-carboxamide], the half-inhibitory concentration (IC50) on BTK-WT was 0.01 to 0.1 µM; on JAK3, more than 10 µM.
On the same counts, the results for `C[C@@H]1[C@H](NC(=O)c2ccc(C3CC3)cc2F)CCCN1c1cnc(C(N)=O)c(Nc2ccc(N3CCN(C)CC3)cc2)c1` [Example D-126, 5-[(2R,3R)-3-(4-cyclopropyl-2-fluorobenzamido)-2-methylpiperidin-1-yl]-3-{[4-(4-methylpiperazin-1-yl)phenyl]amino}pyridine-2-carboxamide] are 0.01 to 0.1 µM and more than 10 µM.
With `C[C@@H]1[C@H](NC(=O)N(C)C)CCCN1c1cnc(C(N)=O)c(Nc2ccc(N3CCN(C)CC3)cc2)n1` [Example D-111, 5-[(2R,3R)-3-[(dimethylcarbamoyl)amino]-2-methylpiperidin-1-yl]-3-{[4-(4-methylpiperazin-1-yl)phenyl]amino}pyrazine-2-carboxamide], the results for the IC50 on BTK-WT and at JAK3 were not above 0.01 µM and 0.1 to 1 µM, respectively.
On to `CN(C)c1ccc2c(c1)CCN([C@@H]1CCCN(c3cnc(C(N)=O)c(Nc4cnn(C)c4)n3)C1)C2=O` [Example D-156, 5-[(3R)-3-[6-(dimethylamino)-1-oxo-1,2,3,4-tetrahydroisoquinolin-2-yl]piperidin-1-yl]-3-[(1-methyl-1H-pyrazol-4-yl)amino]pyrazine-2-carboxamide], for which the IC50 on BTK-WT was not above 0.01 µM; at JAK3 it was 1 to 10 µM.
Consider `C[C@@H]1[C@H](NC(=O)Nc2cccnc2)CCCN1c1cnc(C(N)=O)c(Nc2ccc(C3(C)CCN(C4CCCC4)CC3)cc2)n1` [Example D-9, 3-{[4-(1-cyclopentyl-4-methylpiperidin-4-yl)phenyl]amino}-5-[(2R,3R)-2-methyl-3-{[(pyridin-3-yl)carbamoyl]amino}piperidin-1-yl]pyrazine-2-carboxamide], for which the 50% inhibitory concentration (IC50) was not above 0.01 µM at BTK-WT and 0.1 to 1 µM at JAK3.
The like results for `C[C@@H]1[C@H](NC(=O)c2ccc(C3CC3)cc2)CCCN1c1cnc(C(N)=O)c(Nc2ccc(N3CCC4(CC3)COC4)cc2)n1` [Example D-99, 5-[(2R,3R)-3-(4-cyclopropylbenzamido)-2-methylpiperidin-1-yl]-3-[(4-{2-oxa-7-azaspiro[3.5]nonan-7-yl}phenyl)amino]pyrazine-2-carboxamide] were, in that order, not above 0.01 µM and 0.1 to 1 µM.
As for `C[C@@H]1[C@H](NC(=O)c2ccc(C3CC3)cc2F)CCCN1c1cnc(C(N)=O)c(Nc2ccc(CN3CCN(C)CC3)cn2)n1` [Example D-132, 5-[(2R,3R)-3-(4-cyclopropyl-2-fluorobenzamido)-2-methylpiperidin-1-yl]-3-({5-[(4-methylpiperazin-1-yl)methyl]pyridin-2-yl}amino)pyrazine-2-carboxamide], the IC50 on BTK-WT was 0.01 to 0.1 µM; at JAK3 it was more than 10 µM.
On the same counts, the results for `Cc1cc(Nc2nc(N3CCC[C@@H](NC(=O)c4ccc(C(C)(C)O)cc4)C3)cnc2C(N)=O)sn1` [Example D-158, 5-[(3R)-3-[4-(2-hydroxypropan-2-yl)benzamido]piperidin-1-yl]-3-[(3-methyl-1,2-thiazol-5-yl)amino]pyrazine-2-carboxamide] are not above 0.01 µM and 1 to 10 µM.
On to `C[C@@H]1[C@H](NC(=O)c2ccc(C3CC3)cc2)CCCN1c1cnc(C(N)=O)c(Nc2ccc(N3CCN(C)CC3)cc2F)n1` [Example D-103, 5-[(2R,3R)-3-(4-cyclopropylbenzamido)-2-methylpiperidin-1-yl]-3-{[2-fluoro-4-(4-methylpiperazin-1-yl)phenyl]amino}pyrazine-2-carboxamide], for which the IC50 was not above 0.01 µM on BTK-WT and more than 10 µM at JAK3.
On the same counts, the results for `C[C@@H]1[C@H](NC(=O)N(C)C)CCCN1c1cnc(C(N)=O)c(Nc2cc(C3CCOCC3)ns2)n1` [Example D-162, 5-[(2R,3R)-3-[(dimethylcarbamoyl)amino]-2-methylpiperidin-1-yl]-3-{[3-(oxan-4-yl)-1,2-thiazol-5-yl]amino}pyrazine-2-carboxamide] are not above 0.01 µM and 1 to 10 µM.
Turning to `C[C@@H]1[C@H](NC(=O)c2ccc(C(F)(F)F)cc2)CCCN1c1cnc(C(N)=O)c(Nc2ccc(N3CCN(C)CC3)cc2)n1` [Example D-11, 5-[(2R,3R)-2-methyl-3-[4-(trifluoromethyl)benzamido]piperidin-1-yl]-3-{[4-(4-methylpiperazin-1-yl)phenyl]amino}pyrazine-2-carboxamide], the values for the IC50 at BTK-WT and at JAK3 were not above 0.01 µM and 1 to 10 µM, respectively.

What is called IC50 is the midpoint of a concentration-inhibition curve.
